# Results reported in publication PMC8119466, “A screen of FDA-approved drugs identifies inhibitors of protein tyrosine phosphatase 4A3 (PTP4A3 or PRL-3)” (Scientific Reports, 2021).
# Structures can show the parent of a compound that is named as a salt. Where two headings read alike, the source gives them in different places.
# Columns and labels:
# Format in all cases: biochemical
# recombinant PRL-3 = target: T1, recombinant PRL-3 (Homo sapiens, UniProt O75365); experiment: In vitro phosphatase assay (DiFMUP hydrolysis), PRL-3; as to % Phosphatase Activity (compared to DMSO) PRL-3: test concentration or dose not given here
# T1 construct: 6xHis (N, cleaved yes); made in house; host or cells: E. coli One Shot BL21 Star
# recombinant PRL-1 = target: T2, recombinant PRL-1 (Homo sapiens, UniProt Q93096); experiment: In vitro phosphatase assay (DiFMUP hydrolysis), PRL-1; as to % Phosphatase Activity (compared to DMSO) PRL-1: test concentration or dose not given here
# T2 construct: 6xHis (N, cleaved yes); made in house; host or cells: E. coli One Shot BL21 Star
# T2 sequence (Q93096 1-173): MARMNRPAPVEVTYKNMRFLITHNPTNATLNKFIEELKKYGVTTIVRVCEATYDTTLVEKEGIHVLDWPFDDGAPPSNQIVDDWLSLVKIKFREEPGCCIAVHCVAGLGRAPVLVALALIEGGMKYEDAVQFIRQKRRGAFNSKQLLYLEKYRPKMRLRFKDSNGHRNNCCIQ
# recombinant PRL-2 = target: T3, recombinant PRL-2 (Homo sapiens, UniProt Q12974); experiment: In vitro phosphatase assay (DiFMUP hydrolysis), PRL-2;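 also: PRL-2 activity read as DiFMUP hydrolysis after 20 min at room temperature with drug, enzyme first pre-reduced at 4 °C for 20 min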
# T3 construct: 6xHis (N, cleaved yes); made in house; host or cells: E. coli One Shot BL21 Star
# T3 sequence (Q12974 1-167): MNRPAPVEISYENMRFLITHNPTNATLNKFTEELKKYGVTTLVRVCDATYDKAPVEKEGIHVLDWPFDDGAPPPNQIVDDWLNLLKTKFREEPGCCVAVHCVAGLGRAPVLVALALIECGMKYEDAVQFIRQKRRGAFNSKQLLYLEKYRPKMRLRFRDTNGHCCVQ
# [1] = FDA-approved drug screen, activity compared to DMSO
# [2] = FDA-approved drug screen, compared to DMSO
# T1 sequence (O75365 whole entry): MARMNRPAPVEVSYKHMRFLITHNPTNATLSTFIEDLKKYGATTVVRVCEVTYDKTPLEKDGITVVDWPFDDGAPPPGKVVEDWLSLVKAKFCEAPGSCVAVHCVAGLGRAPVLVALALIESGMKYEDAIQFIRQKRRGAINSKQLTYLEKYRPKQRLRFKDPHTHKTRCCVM
Compound,% Phosphatase Activity (compared to DMSO) PRL-3 (recombinant PRL-3; [2]),% Phosphatase Activity (compared to DMSO) PRL-1 (recombinant PRL-1; [2]),% Phosphatase Activity (compared to DMSO) PRL-2 (recombinant PRL-2; [2]),other results
Cc1ccc(O)c([C@H](CCN(C(C)C)C(C)C)c2ccccc2)c1 [Tolterodine tartrate],,,,% Phosphatase Activity (compared to DMSO) PRL-3 (recombinant PRL-3; [1]): 93%; % Phosphatase Activity (compared to DMSO) PRL-1 (recombinant PRL-1; [1]): 98%; % Phosphatase Activity (compared to DMSO) PRL-2 (recombinant PRL-2; [1]): 110%
NC(=O)c1cn(Cc2c(F)cccc2F)nn1 [Rufinamide],77%,91%,91%,
CN(C)c1ccc(O)c2c1C[C@H]1C[C@H]3[C@H](N(C)C)C(O)=C(C(N)=O)C(=O)[C@@]3(O)C(O)=C1C2=O [Minocycline HCl],104%,84%,70%,
COc1cc2nccc(Oc3ccc(NC(=O)Nc4cc(C)on4)c(Cl)c3)c2cc1OC [Tivozanib (AV-951)],,,,% Phosphatase Activity (compared to DMSO) PRL-3 (recombinant PRL-3; [1]): 75%; % Phosphatase Activity (compared to DMSO) PRL-1 (recombinant PRL-1; [1]): 107%; % Phosphatase Activity (compared to DMSO) PRL-2 (recombinant PRL-2; [1]): 101%
O=C1O[C@H]([C@@H](O)CO)C(O)=C1O [Vitamin C],,,,% Phosphatase Activity (compared to DMSO) PRL-3 (recombinant PRL-3; [1]): 75%; % Phosphatase Activity (compared to DMSO) PRL-1 (recombinant PRL-1; [1]): 96%; % Phosphatase Activity (compared to DMSO) PRL-2 (recombinant PRL-2; [1]): 105%
CCCCOC(=O)c1ccc(N)cc1 [Butamben],80%,91%,94%,
Nc1nc(N)nc(-c2cc(Cl)ccc2Cl)n1 [Irsogladine],81%,84%,106%,
Cn1c(=O)c2[nH]cnc2n(C)c1=O [Theophylline],,,,% Phosphatase Activity (compared to DMSO) PRL-3 (recombinant PRL-3; [1]): 84%; % Phosphatase Activity (compared to DMSO) PRL-1 (recombinant PRL-1; [1]): 105%; % Phosphatase Activity (compared to DMSO) PRL-2 (recombinant PRL-2; [1]): 98%
"CN1CCN(c2ccc3nc(-c4c(N)c5c(F)cccc5[nH]c4=O)[nH]c3c2)CC1 [Dovitinib (TKI-258, CHIR-258)]",74%,87%,96%,
CCC(=O)O[C@@H](O[P@](=O)(CCCCc1ccccc1)CC(=O)N1C[C@H](C2CCCCC2)C[C@H]1C(=O)[O-])C(C)C.[Na+] [Fosinopril Sodium],80%,91%,69%,
CC(CCc1ccc(O)cc1)NCC(O)c1ccc(O)cc1.Cl (racemic) [Ractopamine HCl],100%,103%,113%,
CC[C@@H](CO)NCCN[C@@H](CC)CO [Ethambutol HCl],93%,99%,111%,
O=NN(CCCl)C(=O)NC1CCCCC1 [Lomustine],94%,96%,105%,
OC1(c2ccc(Cl)c(C(F)(F)F)c2)CCN(CCCC(c2ccc(F)cc2)c2ccc(F)cc2)CC1 [Penfluridol],89%,100%,128%,
O=C1CCc2ccc(OCCCCN3CCN(c4cccc(Cl)c4Cl)CC3)cc2N1 [Aripiprazole],103%,100%,111%,
NC(=O)c1cnccn1 [Pyrazinamide],95%,85%,93%,
CCOc1nc2cccc(C(=O)OCc3oc(=O)oc3C)c2n1Cc1ccc(-c2ccccc2-c2noc(=O)[nH]2)cc1 [Azilsartan Medoxomil],90%,91%,96%,
CCN(CC)C(=O)C1(c2ccccc2)CC1CN.Cl (stereo not drawn) [Milnacipran HCl],80%,114%,107%,
Eptifibatide Acetate,91%,88%,82%,
CCC(=O)NS(=O)(=O)c1ccc(-c2c(-c3ccccc3)noc2C)cc1 [Parecoxib],74%,98%,84%,

Compound,% Phosphatase Activity (compared to DMSO) PRL-3 (recombinant PRL-3; [2]),% Phosphatase Activity (compared to DMSO) PRL-1 (recombinant PRL-1; [2]),% Phosphatase Activity (compared to DMSO) PRL-2 (recombinant PRL-2; [2]),other results
Cc1c(-c2cnccn2)ssc1=S [Oltipraz],,,,% Phosphatase Activity (compared to DMSO) PRL-3 (recombinant PRL-3): 76%; % Phosphatase Activity (compared to DMSO) PRL-1 (recombinant PRL-1): 90%; % Phosphatase Activity (compared to DMSO) PRL-2 (recombinant PRL-2): 73%
"Cc1cc(C(C#N)c2ccc(Cl)cc2)c(Cl)cc1NC(=O)c1cc(I)cc(I)c1[O-].[Na+] (stereo not drawn) [Closantel Sodium, reference compound]",34%,15%,12%,"IC50 (recombinant PRL-3; […] protein, DiFMUP at KM, read-out: Calculated IC50, PRL-3 phosphatase activity): 10 ± 0.4 µM; IC50 (recombinant PRL-1; […] protein, DiFMUP at KM, read-out: Calculated IC50, PRL-1 phosphatase activity): 22 ± 8 µM; IC50 (recombinant PRL-2; […] protein, DiFMUP at KM, read-out: Calculated IC50, PRL-2 phosphatase activity): 18 ± 1 µM"
CC(C)Cc1ccc(C(C)C(=O)O)cc1 (stereo not drawn) [Ibuprofen],82%,99%,87%,
O=C(NC(Cc1cc(=O)[nH]c2ccccc12)C(=O)O)c1ccc(Cl)cc1 (stereo not drawn) [Rebamipide],92%,88%,93%,
CN(C)CCC(c1ccc(Br)cc1)c1ccccn1.O=C(O)/C=C\C(=O)O (stereo not drawn) [Brompheniramine hydrogen maleate],78%,108%,107%,
OC[C@@H](O)[C@@H](O)[C@H](O)[C@@H](O)CO [Sorbitol],,,,% Phosphatase Activity (compared to DMSO) PRL-3 (recombinant PRL-3; [1]): 80%; % Phosphatase Activity (compared to DMSO) PRL-1 (recombinant PRL-1; [1]): 105%; % Phosphatase Activity (compared to DMSO) PRL-2 (recombinant PRL-2; [1]): 96%
N[C@@H]1CN(c2c(F)cc3c(=O)c(C(=O)O)cn([C@@H]4C[C@@H]4F)c3c2Cl)CC12CC2.O [Sitafloxacin Hydrate],,,,% Phosphatase Activity (compared to DMSO) PRL-3 (recombinant PRL-3; [1]): 81%; % Phosphatase Activity (compared to DMSO) PRL-1 (recombinant PRL-1; [1]): 91%; % Phosphatase Activity (compared to DMSO) PRL-2 (recombinant PRL-2; [1]): 90%
Cc1ccc(NC(=O)C2(c3ccc4c(c3)OC(F)(F)O4)CC2)nc1-c1cccc(C(=O)O)c1 [VX-809 (Lumacaftor)],,,,% Phosphatase Activity (compared to DMSO) PRL-3 (recombinant PRL-3; [1]): 90%; % Phosphatase Activity (compared to DMSO) PRL-1 (recombinant PRL-1; [1]): 112%; % Phosphatase Activity (compared to DMSO) PRL-2 (recombinant PRL-2; [1]): 96%
C1CNCCN1 [Piperazine],,,,% Phosphatase Activity (compared to DMSO) PRL-3 (recombinant PRL-3): 71%; % Phosphatase Activity (compared to DMSO) PRL-1 (recombinant PRL-1): 95%; % Phosphatase Activity (compared to DMSO) PRL-2 (recombinant PRL-2): 112%
"CC(C)(C)C#Cc1cc(N(C(=O)[C@H]2CC[C@H](C)CC2)[C@H]2CC[C@H](O)CC2)c(C(=O)O)s1 [VX-222 (VCH-222, Lomibuvir)]",,,,% Phosphatase Activity (compared to DMSO) PRL-3 (recombinant PRL-3; [1]): 76%; % Phosphatase Activity (compared to DMSO) PRL-1 (recombinant PRL-1; [1]): 91%; % Phosphatase Activity (compared to DMSO) PRL-2 (recombinant PRL-2; [1]): 85%
CCCNC(=O)NS(=O)(=O)c1ccc(Cl)cc1 [Chlorpropamide],80%,98%,105%,
Vitamin E,,,,% Phosphatase Activity (compared to DMSO) PRL-3 (recombinant PRL-3; [1]): 90%; % Phosphatase Activity (compared to DMSO) PRL-1 (recombinant PRL-1; [1]): 108%; % Phosphatase Activity (compared to DMSO) PRL-2 (recombinant PRL-2; [1]): 90%
CC(=O)O[C@]1(C(C)=O)CC[C@H]2[C@@H]3C=C(C)C4=CC(=O)CC[C@]4(C)[C@H]3CC[C@@]21C [Megestrol Acetate],67%,86%,92%,
CC(=O)OCC[N+](C)(C)C [Acetylcholine Chloride],95%,87%,97%,
COCCCC/C(=N\OCCN)c1ccc(C(F)(F)F)cc1 [Fluvoxamine maleate],75%,88%,100%,
Cc1cccc(C)c1NC(=O)CN1CCCC1=O [Nefiracetam],88%,94%,95%,
Cc1cccc([C@H](C)c2cnc[nH]2)c1C [Dexmedetomidine],,,,% Phosphatase Activity (compared to DMSO) PRL-3 (recombinant PRL-3): 94%; % Phosphatase Activity (compared to DMSO) PRL-1 (recombinant PRL-1): 98%; % Phosphatase Activity (compared to DMSO) PRL-2 (recombinant PRL-2): 113%
CC(=O)CCCCn1c(=O)c2c(ncn2C)n(C)c1=O [Pentoxifylline],92%,85%,92%,
C[C@H](CCC(=O)O)[C@H]1CC[C@H]2[C@@H]3C(=O)C[C@@H]4CC(=O)CC[C@]4(C)[C@H]3CC(=O)[C@]12C [Dehydrocholic acid],80%,103%,118%,
Cc1c(C(N)=O)cc([N+](=O)[O-])cc1[N+](=O)[O-] [Dinitolmide],90%,107%,117%,
